From ChEMBL document CHEMBL5696442, “Discovery of type II inhibitors of TGFβ-activated kinase 1 (TAK1) and mitogen-activated protein kinase kinase kinase kinase 2 (MAP4K2)” (J Med Chem, 2015)
Activity calls are given as the source filed them. No cut-off for these calls is given here.

Legend:
[1] = biological target: Citron Rho-interacting kinase (Homo sapiens) (UniProt O14578); assay: Inhibition of CIT (unknown origin) at 10 uM by Ambit Kinomescan binding assay relative to control; values are per cent of control
[2] = biological target: Proto-oncogene tyrosine-protein kinase ROS (Homo sapiens) (UniProt P08922); assay: Inhibition of ROS1 (unknown origin) at 10 uM by Ambit Kinomescan binding assay
[3] = biological target: Fibroblast growth factor receptor 1 (Homo sapiens) (UniProt P11362); assay: Inhibition of FGFR1 (unknown origin) at 10 uM by Ambit Kinomescan binding assay relative to control; values are per cent of control
[4] = biological target: T1, Serine/threonine-protein kinase Nek1 (Homo sapiens) (UniProt Q96PY6); assay: Inhibition of NEK1 K2 labeling site in human Huh-7 cells at 10 uM by KiNativ Profiling analysis relative to control; assay type: cell-based
T1 sequence (whole entry): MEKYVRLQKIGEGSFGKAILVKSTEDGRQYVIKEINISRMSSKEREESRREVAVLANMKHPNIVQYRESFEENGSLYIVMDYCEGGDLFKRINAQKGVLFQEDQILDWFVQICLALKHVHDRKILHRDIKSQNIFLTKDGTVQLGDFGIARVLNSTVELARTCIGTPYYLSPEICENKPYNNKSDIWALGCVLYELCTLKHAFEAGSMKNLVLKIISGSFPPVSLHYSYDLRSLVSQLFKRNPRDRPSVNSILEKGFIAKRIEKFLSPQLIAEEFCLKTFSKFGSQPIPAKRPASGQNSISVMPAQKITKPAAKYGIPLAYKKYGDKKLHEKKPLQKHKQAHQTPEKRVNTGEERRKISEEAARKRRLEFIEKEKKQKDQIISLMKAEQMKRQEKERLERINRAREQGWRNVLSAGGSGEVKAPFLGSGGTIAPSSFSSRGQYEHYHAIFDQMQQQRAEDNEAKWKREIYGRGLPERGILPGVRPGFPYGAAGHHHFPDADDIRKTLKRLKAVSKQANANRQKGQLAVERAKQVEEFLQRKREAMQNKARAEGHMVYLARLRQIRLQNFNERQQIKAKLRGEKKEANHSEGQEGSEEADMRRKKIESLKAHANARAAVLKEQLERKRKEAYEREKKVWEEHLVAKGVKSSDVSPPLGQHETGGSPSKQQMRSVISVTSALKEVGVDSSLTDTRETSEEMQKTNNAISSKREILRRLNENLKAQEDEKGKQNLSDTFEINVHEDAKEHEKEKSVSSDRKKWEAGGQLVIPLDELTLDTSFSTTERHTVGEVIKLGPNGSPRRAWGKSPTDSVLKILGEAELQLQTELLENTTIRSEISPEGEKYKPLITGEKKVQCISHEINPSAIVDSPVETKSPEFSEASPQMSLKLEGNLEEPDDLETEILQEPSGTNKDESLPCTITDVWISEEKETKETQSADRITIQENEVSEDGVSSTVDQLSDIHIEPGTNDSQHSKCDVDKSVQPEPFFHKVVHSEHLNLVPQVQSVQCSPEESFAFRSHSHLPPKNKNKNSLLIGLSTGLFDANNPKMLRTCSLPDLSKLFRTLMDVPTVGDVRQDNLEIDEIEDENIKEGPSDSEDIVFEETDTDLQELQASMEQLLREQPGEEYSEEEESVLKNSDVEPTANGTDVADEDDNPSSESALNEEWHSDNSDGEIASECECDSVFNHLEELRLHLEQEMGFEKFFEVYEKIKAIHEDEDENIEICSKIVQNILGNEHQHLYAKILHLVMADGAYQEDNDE

[5] = biological target: Non-receptor tyrosine-protein kinase TYK2 (Homo sapiens) (UniProt P29597); assay: Inhibition of TYK2 JH2 pseudokinase domain (unknown origin) at 10 uM by Ambit Kinomescan binding assay
[6] = biological target: Microtubule-associated serine/threonine-protein kinase 3 (Homo sapiens) (UniProt O60307); assay: Inhibition of MAST3 Lys2 labeling site in human A-375 cells at 0.5 uM by KiNativ Profiling analysis relative to control; assay type: cell-based
[7] = biological target: Calcium/calmodulin-dependent protein kinase type II subunit delta (Homo sapiens) (UniProt Q13557); assay: Inhibition of CaMK2d Lys2 labeling site in human Huh-7 cells at 1 uM by KiNativ Profiling analysis relative to control; assay type: cell-based
[8] = biological target: 1-phosphatidylinositol 3-phosphate 5-kinase (Homo sapiens) (UniProt Q9Y2I7); assay: Inhibition of PIP5K3 ATP labeling site in human Huh-7 cell lysate at 1 uM by KiNativ Profiling analysis relative to control; assay type: subcellular
[9] = biological target: Serine/threonine-protein kinase WNK2 (Homo sapiens) (UniProt Q9Y3S1); assay: Inhibition of Wnk2 ACT labeling site in human Huh-7 cell lysate at 1 uM by KiNativ Profiling analysis relative to control; assay type: subcellular
[10] = biological target: Ribosomal protein S6 kinase alpha-1 (Homo sapiens) (UniProt Q15418); assay: Inhibition of RSK1 domain2 Lys2 labeling site in human Huh-7 cell lysate at 1 uM by KiNativ Profiling analysis relative to control; assay type: subcellular
[11] = biological target: Cyclin-dependent kinase 11B (Homo sapiens) (UniProt P21127); assay: Inhibition of CDK11 Lys2 labeling site in human Huh-7 cell lysate at 1 uM by KiNativ Profiling analysis relative to control; assay type: subcellular
[12] = biological target: 5'-AMP-activated protein kinase catalytic subunit alpha-2 (Homo sapiens) (UniProt P54646); assay: Inhibition of AMPKa2 Lys2 labeling site in human Huh-7 cell lysate at 1 uM by KiNativ Profiling analysis relative to control; assay type: subcellular
[13] = biological target: Tyrosine-protein kinase ABL2 (Homo sapiens, UniProt P42684); assay: Inhibition of ABL2 (unknown origin) at 1 uM by Ambit Kinomescan binding assay relative to control; values are per cent of control
[14] = biological target: Tyrosine-protein kinase JAK1 (Homo sapiens) (UniProt P23458); assay: Inhibition of JAK1 domain2 ACT labeling site in human A-375 cells at 0.5 uM by KiNativ Profiling analysis relative to control; assay type: cell-based
[15] = biological target: Cyclin-dependent kinase 8 (Homo sapiens) (UniProt P49336); assay: Inhibition of CDK8 (unknown origin) at 1 uM by Ambit Kinomescan binding assay relative to control
[16] = biological target: MAP kinase-activated protein kinase 2 (Homo sapiens) (UniProt P49137); assay: Inhibition of MAPKAPK2 (unknown origin) at 1 uM by Ambit Kinomescan binding assay relative to control
[17] = biological target: Protein kinase C iota type (Homo sapiens) (UniProt P41743); assay: Inhibition of PRKCI (unknown origin) at 1 uM by Ambit Kinomescan binding assay relative to control; values are per cent of control

Tyrosine-protein kinase ABL2, sequence (P42684 whole entry, the tested form may be a part): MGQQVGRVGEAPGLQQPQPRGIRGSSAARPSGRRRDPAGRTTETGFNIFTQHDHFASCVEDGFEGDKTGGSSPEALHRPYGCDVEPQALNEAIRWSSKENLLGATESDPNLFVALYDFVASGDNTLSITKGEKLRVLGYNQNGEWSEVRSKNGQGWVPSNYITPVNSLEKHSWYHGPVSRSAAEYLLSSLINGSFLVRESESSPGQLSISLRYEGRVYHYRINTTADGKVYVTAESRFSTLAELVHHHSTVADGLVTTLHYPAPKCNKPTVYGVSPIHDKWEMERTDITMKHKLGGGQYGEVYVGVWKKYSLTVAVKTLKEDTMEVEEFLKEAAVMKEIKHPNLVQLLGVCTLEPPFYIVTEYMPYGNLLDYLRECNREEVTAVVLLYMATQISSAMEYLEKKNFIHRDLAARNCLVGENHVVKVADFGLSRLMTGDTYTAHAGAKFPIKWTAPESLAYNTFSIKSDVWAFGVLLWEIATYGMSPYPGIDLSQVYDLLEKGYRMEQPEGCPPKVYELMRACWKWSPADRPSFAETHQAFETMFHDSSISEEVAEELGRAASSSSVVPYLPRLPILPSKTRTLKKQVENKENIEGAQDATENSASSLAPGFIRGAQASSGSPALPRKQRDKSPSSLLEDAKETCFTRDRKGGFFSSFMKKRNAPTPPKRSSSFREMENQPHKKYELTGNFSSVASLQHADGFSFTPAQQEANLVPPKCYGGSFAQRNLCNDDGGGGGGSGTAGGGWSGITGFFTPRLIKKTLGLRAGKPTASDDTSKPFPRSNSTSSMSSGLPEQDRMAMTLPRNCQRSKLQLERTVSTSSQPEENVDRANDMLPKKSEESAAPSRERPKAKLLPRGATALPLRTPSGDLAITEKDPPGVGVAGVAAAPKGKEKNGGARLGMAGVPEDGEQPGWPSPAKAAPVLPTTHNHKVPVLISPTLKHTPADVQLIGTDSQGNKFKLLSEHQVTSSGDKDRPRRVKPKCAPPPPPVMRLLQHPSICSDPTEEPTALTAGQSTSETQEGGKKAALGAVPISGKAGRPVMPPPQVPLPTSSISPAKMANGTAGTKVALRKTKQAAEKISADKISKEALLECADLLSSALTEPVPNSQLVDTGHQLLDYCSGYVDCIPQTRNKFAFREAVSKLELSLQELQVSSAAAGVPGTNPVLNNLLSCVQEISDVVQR
Ribosomal protein S6 kinase alpha-1 (Homo sapiens), sequence (Q15418 whole entry, the tested form may be a part): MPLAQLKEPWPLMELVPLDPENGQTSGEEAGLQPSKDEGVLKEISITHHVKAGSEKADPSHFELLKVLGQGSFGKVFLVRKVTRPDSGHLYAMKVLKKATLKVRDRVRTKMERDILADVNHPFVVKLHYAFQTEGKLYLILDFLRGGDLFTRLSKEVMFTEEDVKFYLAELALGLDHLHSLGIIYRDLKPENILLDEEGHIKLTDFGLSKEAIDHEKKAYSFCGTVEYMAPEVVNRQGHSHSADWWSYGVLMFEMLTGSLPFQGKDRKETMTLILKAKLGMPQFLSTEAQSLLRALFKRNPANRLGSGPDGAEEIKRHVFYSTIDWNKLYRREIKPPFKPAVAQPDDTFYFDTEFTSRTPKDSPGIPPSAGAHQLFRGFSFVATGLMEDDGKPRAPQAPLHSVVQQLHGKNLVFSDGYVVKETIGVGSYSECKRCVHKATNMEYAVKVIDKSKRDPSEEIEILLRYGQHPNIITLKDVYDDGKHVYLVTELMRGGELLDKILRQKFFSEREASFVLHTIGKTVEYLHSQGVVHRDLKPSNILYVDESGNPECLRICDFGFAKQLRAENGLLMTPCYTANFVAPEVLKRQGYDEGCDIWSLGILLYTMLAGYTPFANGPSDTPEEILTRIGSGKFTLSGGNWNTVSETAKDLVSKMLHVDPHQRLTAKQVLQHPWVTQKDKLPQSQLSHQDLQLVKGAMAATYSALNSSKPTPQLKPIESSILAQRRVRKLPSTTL
Fibroblast growth factor receptor 1 (Homo sapiens), sequence (P11362 22-822 limits assumed): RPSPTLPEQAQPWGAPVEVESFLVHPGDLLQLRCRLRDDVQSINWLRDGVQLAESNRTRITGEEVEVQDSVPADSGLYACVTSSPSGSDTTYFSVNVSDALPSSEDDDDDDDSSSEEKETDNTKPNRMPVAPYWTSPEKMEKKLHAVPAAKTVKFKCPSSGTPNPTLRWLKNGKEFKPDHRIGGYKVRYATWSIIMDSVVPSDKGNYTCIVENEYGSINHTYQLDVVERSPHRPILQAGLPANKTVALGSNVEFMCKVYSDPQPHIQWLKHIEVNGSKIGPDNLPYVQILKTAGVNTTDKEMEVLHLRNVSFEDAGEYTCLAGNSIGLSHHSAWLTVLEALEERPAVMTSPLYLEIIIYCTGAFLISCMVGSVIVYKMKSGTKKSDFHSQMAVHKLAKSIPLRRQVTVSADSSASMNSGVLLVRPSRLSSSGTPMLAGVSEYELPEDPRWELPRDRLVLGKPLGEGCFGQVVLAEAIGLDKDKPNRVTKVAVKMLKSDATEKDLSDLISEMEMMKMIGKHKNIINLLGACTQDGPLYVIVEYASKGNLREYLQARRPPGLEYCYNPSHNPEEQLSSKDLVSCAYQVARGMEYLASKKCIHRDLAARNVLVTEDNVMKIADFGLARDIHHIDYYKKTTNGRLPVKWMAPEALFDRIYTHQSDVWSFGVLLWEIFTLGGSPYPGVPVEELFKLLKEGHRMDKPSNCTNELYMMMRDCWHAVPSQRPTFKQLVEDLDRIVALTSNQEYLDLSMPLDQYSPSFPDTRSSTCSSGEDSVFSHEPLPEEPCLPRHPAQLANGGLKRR
Non-receptor tyrosine-protein kinase TYK2 (Homo sapiens), sequence (P29597 whole entry, the tested form may be a part): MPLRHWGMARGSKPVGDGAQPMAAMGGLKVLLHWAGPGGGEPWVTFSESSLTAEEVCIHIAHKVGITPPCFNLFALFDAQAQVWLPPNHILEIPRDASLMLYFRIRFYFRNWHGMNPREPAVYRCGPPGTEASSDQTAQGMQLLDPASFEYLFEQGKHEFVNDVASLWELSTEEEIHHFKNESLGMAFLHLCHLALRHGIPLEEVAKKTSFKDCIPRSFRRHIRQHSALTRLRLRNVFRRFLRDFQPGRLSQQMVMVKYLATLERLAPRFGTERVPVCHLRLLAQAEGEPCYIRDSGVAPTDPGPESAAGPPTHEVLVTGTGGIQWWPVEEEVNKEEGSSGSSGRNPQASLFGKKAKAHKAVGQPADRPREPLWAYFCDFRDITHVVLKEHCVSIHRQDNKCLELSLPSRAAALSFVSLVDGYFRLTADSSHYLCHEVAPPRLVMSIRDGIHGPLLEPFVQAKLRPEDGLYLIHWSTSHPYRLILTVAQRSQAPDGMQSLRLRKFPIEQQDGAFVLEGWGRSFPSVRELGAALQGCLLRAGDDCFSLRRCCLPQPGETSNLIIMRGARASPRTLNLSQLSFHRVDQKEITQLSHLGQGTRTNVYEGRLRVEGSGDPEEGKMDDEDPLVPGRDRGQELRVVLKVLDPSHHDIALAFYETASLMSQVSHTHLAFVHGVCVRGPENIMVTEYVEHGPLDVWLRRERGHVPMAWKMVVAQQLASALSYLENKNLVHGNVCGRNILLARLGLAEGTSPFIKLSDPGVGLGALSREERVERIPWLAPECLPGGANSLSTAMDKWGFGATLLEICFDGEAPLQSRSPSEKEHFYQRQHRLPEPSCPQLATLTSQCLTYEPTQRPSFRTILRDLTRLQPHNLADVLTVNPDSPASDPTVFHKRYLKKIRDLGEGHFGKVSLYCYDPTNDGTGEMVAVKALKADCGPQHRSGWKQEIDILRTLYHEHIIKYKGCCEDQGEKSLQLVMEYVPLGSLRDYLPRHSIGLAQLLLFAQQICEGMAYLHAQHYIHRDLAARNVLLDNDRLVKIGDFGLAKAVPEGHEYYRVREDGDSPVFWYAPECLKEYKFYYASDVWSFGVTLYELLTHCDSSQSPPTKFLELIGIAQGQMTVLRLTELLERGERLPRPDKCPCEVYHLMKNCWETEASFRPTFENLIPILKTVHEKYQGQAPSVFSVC
MAP kinase-activated protein kinase 2 (Homo sapiens), sequence (P49137 whole entry, looked up): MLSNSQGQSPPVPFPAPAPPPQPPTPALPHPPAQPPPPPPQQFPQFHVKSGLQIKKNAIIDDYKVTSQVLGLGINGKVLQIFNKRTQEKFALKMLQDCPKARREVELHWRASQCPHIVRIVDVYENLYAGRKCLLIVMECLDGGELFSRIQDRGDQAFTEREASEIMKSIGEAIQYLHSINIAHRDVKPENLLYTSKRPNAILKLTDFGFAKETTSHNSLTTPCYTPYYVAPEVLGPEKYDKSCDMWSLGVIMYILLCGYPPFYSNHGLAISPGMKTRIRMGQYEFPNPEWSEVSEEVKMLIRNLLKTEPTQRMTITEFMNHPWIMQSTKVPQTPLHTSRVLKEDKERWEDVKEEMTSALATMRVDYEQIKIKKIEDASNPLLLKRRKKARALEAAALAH
Cyclin-dependent kinase 11B (Homo sapiens), sequence (P21127 whole entry): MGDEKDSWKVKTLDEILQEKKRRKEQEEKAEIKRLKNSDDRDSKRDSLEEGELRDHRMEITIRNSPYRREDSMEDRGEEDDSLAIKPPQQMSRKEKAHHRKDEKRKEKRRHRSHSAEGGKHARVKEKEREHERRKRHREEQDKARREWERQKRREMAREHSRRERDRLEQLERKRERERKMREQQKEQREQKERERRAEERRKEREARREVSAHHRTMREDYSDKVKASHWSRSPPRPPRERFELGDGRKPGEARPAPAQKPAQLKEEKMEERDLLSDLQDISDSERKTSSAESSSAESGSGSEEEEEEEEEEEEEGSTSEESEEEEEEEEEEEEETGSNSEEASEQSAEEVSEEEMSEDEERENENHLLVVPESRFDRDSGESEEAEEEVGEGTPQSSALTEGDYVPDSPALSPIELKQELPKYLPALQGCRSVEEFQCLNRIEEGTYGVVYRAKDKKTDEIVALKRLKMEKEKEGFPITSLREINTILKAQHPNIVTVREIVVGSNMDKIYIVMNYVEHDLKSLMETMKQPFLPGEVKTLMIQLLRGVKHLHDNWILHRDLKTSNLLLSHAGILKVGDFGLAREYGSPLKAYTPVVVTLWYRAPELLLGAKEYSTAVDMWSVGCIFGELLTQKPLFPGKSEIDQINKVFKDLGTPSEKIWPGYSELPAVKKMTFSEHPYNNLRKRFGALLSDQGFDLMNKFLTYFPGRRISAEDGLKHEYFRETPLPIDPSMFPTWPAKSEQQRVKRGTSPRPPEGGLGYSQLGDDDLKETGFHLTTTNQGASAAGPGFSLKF

SMILES: CCN1CCN(Cc2ccc(NC(=O)c3ccc(C)c(Oc4ccnc5[nH]ccc45)c3)cc2C(F)(F)F)CC1
- percent of control [1]: 0.1%
- inhibition [2]: inactive
- % of control [3]: 1.7%
- inhibition [4]: -4.4%
- inhibition [5]: inactive
- inhibition [6]: 2.5%

SMILES: CNc1cc(Oc2cc(C(=O)Nc3cc(N4CCN(C)CC4)cc(C(F)(F)F)c3)ccc2C)ncn1
- inhibition [7]: 20.3%
- inhibition [8]: 0.7%
- inhibition [9]: -6.9%
- inhibition [10]: -2%
- inhibition [11]: -8.6%
- inhibition [12]: 0.5%

SMILES: CCN1CCN(Cc2ccc(NC(=O)c3ccc(C)c(/C=C/c4cnc5[nH]ccc5c4OC)c3)cc2C(F)(F)F)CC1
- % of control [13]: 0.7%
- inhibition [14]: 5%
- inhibition [15]: 25%
- inhibition [16]: 100%
- residual activity [17]: 100%
